Test results as given in patent US20140357584A1 (priority 2011, published 2014).
Like-named read-outs stand apart in the source and are kept apart here.

Tests used:
[1] = system: HIV-1 strain SF162: M-Tropic; assay: Human PBMC assay, p24 antigen ELISA, HIV1 clinical strain SF162; assay type: cell-based
Text: (§1) Anti-HIV Evaluation Using Four HIV1 Clinical Strains.
(§2) Four HIV1 clinical strains, BAL and SF162 (M-tropic), […], and 89.6 (a dual tropic strain), were used in the current study. Here a standardized human peripheral blood mononuclear cell culture (PBMC) assay was used to determine the compound susceptibility of these HIV-1 strains. AZT, an anti-HIV drug in clinical use, was used as a positive control. Briefly, human PBMCs were collected from a donor and stimulated for seven days. The preparations (compound or fraction) were then added to the cultured cells at a wide range of concentrations, and the different HIV-1 strains were used to challenge the cultured cells using 96-well plates. After seven-days of incubation, the supernatants were collected and the HIV p24 levels of the infected cells were determined using a p24 antigen ELISA. The ICsos were calculated by comparing p24 antigen values for the compounds (fraction)-containing wells with those for no drug control wells. In these experiments, AZT was used as positive controls.

[2] = system: HIV-1 strain 89.6: Dual-Tropic; assay: Human PBMC assay, p24 antigen ELISA, HIV1 clinical strain 89.6; assay type: cell-based
Text: as §1, §2

[3] = system: HIV-1 strain Lav.04: T-Tropic; assay: Human PBMC assay, p24 antigen ELISA, HIV1 clinical strain Lav.04; assay type: cell-based
Text: as §1, §2

four HIV-1 strains = assay: Human PBMC assay, p24 antigen ELISA, summary over the four HIV-1 strains; assay type: cell-based; details: read-out: IC50, depending on the strains
Text: Justiprocumins B (2) and patentiflorin A (3) were further evaluated against a broad spectrum of HIV strains including four HIV1 clinical strains, BAL and SF162 (M-tropic), […], and 89.6 (a dual tropic strain). In these experiments, AZT was used as a positive control. […] It is clear that justiprocumin B (2) and patentification A (3), like AZT, could inhibit the particle production of all four HIV-1 strains effectively in a dose-dependent manner.
as §1, §2

[4] = system: HIV-1 strain Bal: M-Tropic; assay: Human PBMC assay, p24 antigen ELISA, HIV1 clinical strain Bal; assay type: cell-based
Text: as §1, §2

HIV replication = assay: Anti-HIV Post-Entry protocol (HIV/HA pseudovirions, luciferase reporter, A549 target cells); assay type: cell-based; details: for inhibition at 1 µg/mL: Human immunodeficiency virus 1, A549, read-out: inhibition of HIV replication
Hela cell line = assay: Evaluation of toxicity (CellTiter 96), Hela; assay type: cell-based; details: at a concentration of 10 μg/mL
Description: (§3) Approximately 5000 cells seeded in a 96-well tissue culture plate in DMEM supplemented with FBS and penicillin/streptomycin. DMSO alone or compounds in 100% DMSO were added on the following day at appropriate concentrations and incubated with cells at 37° C. in 5% CO2 for 24 hr. After 24 hr, all media were removed and replaced with 100 μL fresh complete DMEM. After 48 hr post initial addition of DMSO or compound, 20 μL of CellTiter 96 Aqueous One Solution was added per well. After gentle mixing, plates were incubated at 37° C. in 5% CO2 for 4 hr. 25 μL of a 10% SDS solution was added per well and plates were stored at room temperature for approximately 12 hr. Absorbance was then measured at 450 nm using a plate reader.

A549 cell line = assay: Evaluation of toxicity (CellTiter 96), A549; assay type: cell-based, human; details: at a concentration of 10 μg/mL
Description: as §3

[5] = system: HIV reverse transcription; assay: HIV gene expression of the R/U5 and U5/gag transcripts; assay type: cell-based
[6] = Human immunodeficiency virus 1, PBMC, 168 h, read-out: IC50 SF162: M-Tropic, human PBMC, p24 antigen, seven days
[7] = Human immunodeficiency virus 1, PBMC, 168 h, read-out: IC50 89.6: Dual-Tropic, human PBMC, p24 antigen, seven days
[8] = Human immunodeficiency virus 1, PBMC, 168 h, read-out: IC50 Lav.04: T-Tropic, human PBMC, p24 antigen, seven days
[9] = Human immunodeficiency virus 1, PBMC
[10] = Human immunodeficiency virus 1, BAL, PBMC, 168 h, read-out: IC50 Bal: M-Tropic, human PBMC, p24 antigen, seven days

Molecule `Cc1cn([C@H]2C[C@H](N=[N+]=[N-])[C@@H](CO)O2)c(=O)[nH]c1=O` [AZT, zidovudine, reference compound] has an IC50 ([1]; Human immunodeficiency virus 1, PBMC, 168 h, human PBMC, p24 antigen, seven days, read-out: IC50 SF162: M-Tropic) of 85 nM, an IC50 ([2]; Human immunodeficiency virus 1, PBMC, 168 h, human PBMC, p24 antigen, seven days, read-out: IC50 89.6: Dual-Tropic) of 95 nM and an IC50 ([3]; Human immunodeficiency virus 1, PBMC, 168 h, human PBMC, p24 antigen, seven days, read-out: IC50 Lav.04: T-Tropic) of 79 nM. It also gave an IC50 (four HIV-1 strains; Human immunodeficiency virus 1, range over four HIV-1 strains, human PBMC) of 77 to 95 nM and an IC50 ([4]; Human immunodeficiency virus 1, BAL, PBMC, 168 h, human PBMC, p24 antigen, seven days, read-out: IC50 Bal: M-Tropic) of 77 nM.
`COc1cc2c(O[C@@H]3O[C@H](C)[C@@H](O[C@@H]4O[C@H](CO)[C@@H](O)[C@H](O)[C@H]4O)[C@H](OC(C)=O)[C@H]3O)c3c(c(-c4ccc5c(c4)OCO5)c2cc1OC)C(=O)OC3` [Justiprocumin A (1), 9-(1,3-benzodioxol-5-yl)-4-[(3-O-acetyl-6-deoxy-4-O-β-D-glucopyranosyl-β-D-glucopyranosyl)oxy]-6,7-dimethoxy-naphtho[2,3-c]furan-1(3H)-one] gave an inhibition at 1 µg/mL (HIV replication) greater than 100%.
`COc1cc2c(O[C@@H]3O[C@H](C)[C@@H](O[C@@H]4O[C@H](CO)[C@@H](O)[C@H](O)[C@H]4O)[C@H](O)[C@H]3OC(C)=O)c3c(c(-c4ccc5c(c4)OCO5)c2cc1OC)C(=O)OC3` [Justiprocumin B (2), 9-(1,3-benzodioxol-5-yl)-4-[(2-O-acetyl-6-deoxy-4-O-β-D-glucopyranosyl-β-D-glucopyranosyl)oxy]-6,7-dimethoxy-naphtho[2,3-c]furan-1(3H)-one] showed an IC50 [1, 6] of 14 nM, an IC50 [2, 7] of 15 nM and an IC50 [3, 8] of 21 nM. It also gave an IC50 (four HIV-1 strains; [9]) of 14 to 21 nM, an IC50 [4, 10] of 15 nM and an inhibition at 1 µg/mL (HIV replication) greater than 100%.
`COc1cc2c(OC3OC(C)C(O)C(O)C3O)c3c(c(-c4ccc5c(c4)OCO5)c2cc1OC)C(=O)OC3` (stereo not shown) [Patentiflorin A (3), patentiflorin A] was tested, and the IC50 [1, 6] was 37 nM, the IC50 ([1]; read-out: IC50 SF162: M-Tropic, human PBMC, p24 antigen, seven days, listed as Synthetic patentiflorin A (3)) was 30 nM and the IC50 [2, 7] was 32 nM. For the same molecule, the IC50 ([2]; read-out: IC50 89.6: Dual-Tropic, human PBMC, p24 antigen, seven days, listed as Synthetic patentiflorin A (3)) was 31 nM, the “cytotoxicity against Hela” value (Hela cell line) was “no apparent cytotoxicity” and the “cytotoxicity against A549” value (A549 cell line) was “no apparent cytotoxicity”. For the same molecule, the IC50 [3, 8] was 24 nM, the IC50 ([3]; read-out: IC50 Lav.04: T-Tropic, human PBMC, p24 antigen, seven days, listed as Synthetic patentiflorin A (3)) was 32 nM and the IC50 (four HIV-1 strains; [9]) was 24 to 37 nM. The “inhibition of HIV reverse transcription (R/U5 and U5/gag transcripts)” value [5] was “effective inhibitor of HIV reverse transcription”, the IC50 [4, 10] was 30 nM and the IC50 ([4]; read-out: IC50 Bal: M-Tropic, human PBMC, p24 antigen, seven days, listed as Synthetic patentiflorin A (3)) was 32 nM. For the same molecule, the IC50 (HIV replication; Human immunodeficiency virus 1, A549, read-out: anti-HIV activity IC50) was less than 0.01 µg/mL.
